The results in this text go back to patent US12329788B2, “Synbiotic compositions” (Evonik Operations GmbH, priority 2018, dated 2025).

Where a SMILES comes first, the peptide text is derived from it.

Assay [1] has as its system colonic human microbiota. Description: i-screen intestinal screening model, microbiota composition by 16S rRNA V4 sequencing (whole community, Bacillus persistence). It is filed as cell-based. Particulars: for synergy on microbial community composition (higher increase of Clostridium XIVa, higher decrease of Clostridium XI than single additions): 24 h; for other genera relative abundance: 24 h SIEM, amino acids 3.5 mM; for other genera relative abundance / effect on the microbial community: dipeptides 7 mM; for effect on the microbial community: Example 8, amino acids 3.5 mM, 0% O2. From the text: To determine the effect of the probiotic strains Bacillus subtilis DSM 32315, Bacillus subtilis DSM 32540, Bacillus licheniformis DSM 32314 and Bacillus amyloliquefaciens CECT 5940 on adult colonic microbiota, an intestinal screening model was used (i-screen, TNO, the Netherlands). Therefore the i-screen model was inoculated with standard human adult fecal microbiota material, which consisted of pooled fecal donations from 6 healthy adult volunteers (Caucasian, European lifestyle and nutrition). The fecal material was mixed and grown in a fed-batch fermenter for 40 hours to create a standardized microbiota as described previously. These standard adult gut microbiota sets were stored at -80° C. in 12% glycerol. The intestinal microbiota was cultured in vitro in modified standard ileal efflux medium (SIEM), the composition of which was described by and modified as follows: 0.047 g/l pectin, 0.047 g/l xylan, 0.047 g/l arabinogalactan, 0.047 g/l amylopectin, 0.392 g/l starch, 24.0 g/l casein, 24.0 Bacto pepton, 0.4 ox-bile and 0.2 g/l cysteine. All components were supplied by Trititium Microbiology (Veldhoven, The Netherlands). The pH of the medium was adjusted to 5.8. For the i-screen fermentations, the precultured standardized fecal inoculum was diluted 50 times in 1350 μl modified SIEM. All experiments have been carried out in triplicates. The strains Bacillus subtilis (DSM 32315), Bacillus subtilis DSM 32540, Bacillus licheniformis DSM 32314 and Bacillus amyloliquefaciens CECT 5940 were precultured separately in 50 ml LBKelly medium, for about 16 h. Incubation was done in shaking flasks at 37° C. under aerobic conditions. After incubation, bacterial density was determined by optical density measurement at 600 nm. A final stock solution of 1×10^10 cells/ml was prepared in 1 ml buffer solution (0.1 mM MES pH 6). […] DNA extraction for the sequencing of 16S rRNA coding genes was performed as described by […] et al. (2013) with some minor modifications. Approximately 100 μl of the culture materials were added to the wells of a 96 well plate containing per well 300 μl of lysis buffer (Mag Mini DNA Isolation Kit, LGC ltd, UK), 500 μl zirconium beads (0.1 mm; BioSpec products, Bartlesville, OK, USA) and 500 μl of phenol saturated with Tris-HCI (pH 8.0; Carl Roth GMBH, Germany). The 96 well plate was placed in a Mini-BeadBeater-96 (BioSpec products, Bartlesville, Okla, USA) for 2 min at 2100 oscillations/min. DNA was subsequently purified using the Agowa Mag Mini DNA Isolation Kit according to the manufacturer recommendations. Extracted DNA was eluted in a final volume of 60 μl buffer. The microbiota composition was analyzed by 16S rRNA gene amplicon sequencing of the V4 Hypervariable Region. This was Achieved Through a Series of Steps: The amount of bacterial DNA in the i-screen DNA samples was determined by quantitative polymerase chain reaction (qPCR) using primers specific for the bacterial 16S rRNA gene: Subsequently, PCR amplicons of the V4 hypervariable region of the 16S rRNA gene were generated for the individual samples by amplification of […] of DNA as described by (2013), using […]/[…] primers. Primers included Illumina adapters and a unique 8-nt sample index sequence key. A mock control was included for technical quality control. […] The Library was quantified using the Quant-iTTM PicoGreen® dsDNA Assay Kit (Thermo Fisher Scientific). Paired-end sequencing of amplicons was conducted on the Illumina MiSeq platform (Illumina, Eindhoven, The Netherlands). The sequence data was processed with Mothur v.1.36.1 [26] in line with the mothur MiSeq SOP [24]. Before merging the read pairs, low quality regions were trimmed using Btrim with a sliding window size of 5 nt and average quality score of 25. After merging, the sequences were filtered by length while no ambiguous bases were allowed. […] Chimeric sequences were identified per sample using […] [28] in de novo mode and removed. […]

Assay [2] deals with human gut microbiota. Description: lactate and short-chain fatty acid production in i-screen with human gut microbiota. The note with it: 24 h, amino acids 3.5 mM, dipeptides 7 mM. It is filed as cell-based. From the text: To determine the effect of the probiotic strains Bacillus subtilis DSM 32315, Bacillus subtilis DSM 32540, Bacillus licheniformis DSM 32314 and Bacillus amyloliquefaciens CECT 5940 on adult colonic microbiota, an intestinal screening model was used (i-screen, TNO, the Netherlands). Therefore the i-screen model was inoculated with standard human adult fecal microbiota material, which consisted of pooled fecal donations from 6 healthy adult volunteers (Caucasian, European lifestyle and nutrition). The fecal material was mixed and grown in a fed-batch fermenter for 40 hours to create a standardized microbiota as described previously. These standard adult gut microbiota sets were stored at −80° C. in 12% glycerol.
The intestinal microbiota was cultured in vitro in modified standard ileal efflux medium (SIEM), the composition of which was described by and modified as follows: 0.047 g/l pectin, 0.047 g/l xylan, 0.047 g/l arabinogalactan, 0.047 g/l amylopectin, 0.392 g/l starch, 24.0 g/l casein, 24.0 Bacto pepton, 0.4 ox-bile and 0.2 g/l cysteine. All components were supplied by Trititium Microbiology (Veldhoven, The Netherlands). The pH of the medium was adjusted to 5.8.
For the i-screen fermentations, the precultured standardized fecal inoculum was diluted 50 times in 1350 μl modified SIEM. All experiments have been carried out in triplicates. The strains Bacillus subtilis (DSM 32315), Bacillus subtilis DSM 32540, Bacillus licheniformis DSM 32314 and Bacillus amyloliquefaciens CECT 5940 were precultured separately in 50 ml LBKelly medium, for about 16 h. Incubation was done in shaking flasks at 37° C. under aerobic conditions. After incubation, bacterial density was determined by optical density measurement at 600 nm. A final stock solution of 1×10^10 cells/ml was prepared in 1 ml buffer solution (0.1 mM MES pH 6). The suspension of each strain was introduced into the i-screen to a final level of about 10^9 cells/ml, respectively
The i-screen incubation was performed under following gas conditions: 0.2% O2, 0.2% CO2, 10% H2, 89.6% N2.
The effect of the combination of different probiotic strains together with glutamine, or glutamine- or glutamic acid-containing dipeptides containing peptides on the n-butyrate production of the microbial community was analyzed for the strain B. subtilis (DSM 32315) as described in example 1 and 5. The single amino acids were added to a concentration of 3.5 mM and the dipeptides to a concentration of 7 mM.
The effects of the combination of different probiotic strains together with glutamine, or glutamine- or glutamic acid-containing dipeptides containing peptides on the n-butyrate production of the microbial community were analyzed for the strains B. licheniformis (DSM 32314) and B. amyloliquefaciens (CECT 5940) as described in example 1, 5, and 10. The single amino acids were added to a concentration of 3.5 mM and the dipeptides to a concentration of 7 mM.

Setting [3] is: in combination with B. amyloliquefaciens (CECT 5940).
The mark [4] stands for this setting: in combination with B. licheniformis (DSM 32314).
[5] abbreviates: in combination with B. subtilis (DSM 32315).
Setting [6] is: microbiota + CECT 5940 (first group so headed, r13-r15).
[7] abbreviates: microbiota + CECT 5940 (second group so headed, r16-r18).

For the compound `C[C@H](N)C(=O)N[C@@H](CCC(N)=O)C(=O)O` [Ala-Gln, Alanine-Glutamine] (H-Ala-Gln-OH), the “synergy on microbial community composition (higher increase of Clostridium XIVa, higher decrease of Clostridium XI than single additions)” value in assay [1] (setting [3]), in assay [1] (setting [4]) and in assay [1] (setting [5]) was “synergistic effect” in each case. Also, the “other genera relative abundance” value in assay [1] (setting [6]) was determined as 90%; in assay [1] (setting [7]) it was 94%; in assay [1] (microbiota + DSM 32315) it was 96%; in assay [1] (microbiota, no probiotic cells), 98%. In addition, the “synergy on n-butyrate concentration” value in assay [2] (setting [4]) and in assay [2] (setting [5]) was “Synergistic positive effects” throughout.
With `NCC(=O)O.N[C@@H](CCC(=O)O)C(=O)O` [Gly-Glu, Glycine-Glutamic acid], the “synergy on microbial community composition (higher increase of Clostridium XIVa, higher decrease of Clostridium XI than single additions)” value in assay [1] (setting [3]), in assay [1] (setting [4]) and in assay [1] (setting [5]) was “synergistic effect” throughout. Moreover, the “other genera relative abundance” value was 91% in assay [1] (setting [6]); 90% in assay [1] (setting [7]); 92% in assay [1] (microbiota + DSM 32315); 95% in assay [1] (microbiota, no probiotic cells). The “synergy on n-butyrate concentration” value in assay [2] (setting [4]) and in assay [2] (setting [5]) was “Synergistic positive effects” throughout.
With `CC(=O)N[C@@H](C)C(=O)N[C@@H](CCC(N)=O)C(=O)O` [Ac-Ala-Gln] (Ac-Ala-Gln-OH), the “other genera relative abundance” value in assay [1] (setting [6]) was 78%; in assay [1] (setting [7]) it was 76%; in assay [1] (microbiota + DSM 32315), 67%; in assay [1] (microbiota, no probiotic cells) it was 72%.
In the case of `NC(=O)CC[C@H](N)C(=O)O` [Gln, glutamine, reference compound], the “effect on the microbial community” value in assay [1] is reported as “no positive effect on the microbial community”. Further, the “synergy on microbial community composition (higher increase of Clostridium XIVa, higher decrease of Clostridium XI than single additions)” value in assay [1] (setting [3]) was “synergistic effect”. The “other genera relative abundance” value is on record as 79% in assay [1] (setting [6]); 70% in assay [1] (setting [7]); 74% in assay [1] (microbiota + DSM 32315); 72% in assay [1] (microbiota, no probiotic cells). Moreover, the “synergy on n-butyrate concentration” value in assay [2] (setting [3]) and in assay [2] (setting [5]) was “Synergistic positive effects” each time.
On to `N[C@@H](CCC(=O)O)C(=O)O` [Glu, glutamic acid, reference compound], for which, in assay [1], the “effect on the microbial community” value is given as “no positive effect on the microbial community”. In addition, the “other genera relative abundance” value is 73% in assay [1] (setting [6]); 80% in assay [1] (setting [7]); 72% in assay [1] (microbiota + DSM 32315); 72% in assay [1] (microbiota, no probiotic cells). Also, the “synergy on n-butyrate concentration” value in assay [2] (setting [5]) is “Synergistic positive effects”.
